Test results from US12577206B2 (BRISTOL-MYERS SQUIBB COMPANY, priority 2020, dated 2026).

How the values were obtained:
human FPR2 = biological target: T1, human FPR2 (Homo sapiens, UniProt P25090); experiment: FPR2 cyclic adenosine monophosphate (cAMP) assay; format: cell-based; conditions: CHO cells overexpressing human FPR2; forskolin 5 μM; inhibition of cAMP production; HTRF; read-out: hFPR2 cAMP2 EC50
T1 sequence (P25090 1-351): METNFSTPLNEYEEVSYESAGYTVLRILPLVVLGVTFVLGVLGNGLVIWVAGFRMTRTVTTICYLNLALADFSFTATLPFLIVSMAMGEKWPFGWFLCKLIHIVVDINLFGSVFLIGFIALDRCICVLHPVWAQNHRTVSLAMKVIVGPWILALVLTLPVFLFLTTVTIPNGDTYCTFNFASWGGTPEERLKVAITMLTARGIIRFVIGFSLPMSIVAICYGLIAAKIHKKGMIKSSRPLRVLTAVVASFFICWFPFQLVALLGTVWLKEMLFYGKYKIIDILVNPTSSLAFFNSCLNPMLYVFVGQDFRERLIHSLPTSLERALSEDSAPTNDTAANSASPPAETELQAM
How it was run: (§1)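 Gi-coupled activity is read as suppression of forskolin-stimulated cAMP (10 μM final for FPR1, 5 μM final for FPR2; IBMX 200 μM final) in recombinant CHO cells, 30 min incubation at rt, HTRF detection.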

human FPR1 = biological target: T2, human FPR1 (Homo sapiens, UniProt P21462); experiment: FPR1 cyclic adenosine monophosphate (cAMP) assay; format: cell-based; conditions: CHO cells overexpressing human FPR1; forskolin 10 μM; inhibition of cAMP production; HTRF; read-out: hFPR1 cAMP2 EC50
T2 sequence (P21462 1-350): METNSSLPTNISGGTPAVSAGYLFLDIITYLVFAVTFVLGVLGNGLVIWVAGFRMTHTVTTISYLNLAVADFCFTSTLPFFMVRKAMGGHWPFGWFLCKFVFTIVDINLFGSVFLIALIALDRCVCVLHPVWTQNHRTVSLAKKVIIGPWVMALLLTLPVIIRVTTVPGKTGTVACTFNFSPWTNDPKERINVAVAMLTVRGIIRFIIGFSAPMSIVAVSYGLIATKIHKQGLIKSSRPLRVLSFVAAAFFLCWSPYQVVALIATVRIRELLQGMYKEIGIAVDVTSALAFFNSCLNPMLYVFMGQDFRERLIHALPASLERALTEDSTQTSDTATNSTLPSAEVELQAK
How it was run: as §1

| EC50 (human FPR2) | EC50 (human FPR1) | SMILES |
| --- | --- | --- |
| 2 nM | > 10000 nM | COc1cc(OCC2CCOC2)nc(-n2c(=O)c(NC(=O)c3ccc(OC(F)F)cc3)c(-c3c(F)cc(OC)cc3F)n2C)c1 (stereo not drawn) [Example 351, N-(5-(2,6-Difluoro-4-methoxyphenyl)-2-(4-methoxy-6-((tetrahydrofuran-3-yl)methoxy)pyridin-2-yl)-1-methyl-3-oxo-2,3-dihydro-1H-pyrazol-4-yl)-4-(difluoromethoxy)benzamide] |
| 6 nM | > 10000 nM | COc1cc(F)c(-c2c(NC(=O)c3ccc(OC(F)F)cc3)c(=O)n(-c3cc(C)cc(OCC4CCOC4)n3)n2C)c(F)c1 (stereo not drawn) [Example 352, N-(5-(2,6-Difluoro-4-methoxyphenyl)-1-methyl-2-(4-methyl-6-((tetrahydrofuran-3-yl)methoxy)pyridin-2-yl)-3-oxo-2,3-dihydro-1H-pyrazol-4-yl)-4-(difluoromethoxy)benzamide] |
| 2 nM | 1600 nM | COc1cc(F)c(-c2c(NC(=O)c3ccc(OC(F)F)cc3)c(=O)n(-c3cc(C)cc(OCC4(C)COC4)n3)n2C)c(F)c1 [Example 353, N-(5-(2,6-Difluoro-4-methoxyphenyl)-1-methyl-2-(4-methyl-6-((3-methyloxetan-3-yl)methoxy)pyridin-2-yl)-3-oxo-2,3-dihydro-1H-pyrazol-4-yl)-4-(difluoromethoxy)benzamide] |
| 2 nM | > 10000 nM | COc1cc(N2C[C@H]3C[C@@H]2CN3C)nc(-n2c(=O)c(NC(=O)c3ccc(OC(F)F)cc3)c(-c3c(F)cc(OC)cc3F)n2C)c1 [Example 354, N-(5-(2,6-Difluoro-4-methoxyphenyl)-2-(4-methoxy-6-((1R,4R)-5-methyl-2,5-diazabicyclo[2.2.1]heptan-2-yl)pyridin-2-yl)-1-methyl-3-oxo-2,3-dihydro-1H-pyrazol-4-yl)-4-(difluoromethoxy)benzamide] |
| 4 nM | > 10000 nM | COc1cc(OC2CCOC2)nc(-n2c(=O)c(NC(=O)c3ccc(OC(F)F)cc3)c(-c3c(F)cc(OC)cc3F)n2C)c1 (stereo not drawn) [Example 355, N-(5-(2,6-Difluoro-4-methoxyphenyl)-2-(4-methoxy-6-((tetrahydrofuran-3-yl)oxy)pyridin-2-yl)-1-methyl-3-oxo-2,3-dihydro-1H-pyrazol-4-yl)-4-(difluoromethoxy)benzamide] |
| 5 nM | > 10000 nM | COc1cc(OC2CCOC2)nc(-n2c(=O)c(NC(=O)c3ccc(OC(F)F)cc3)c(-c3c(F)cc(OC)cc3F)n2C)c1 (stereo not drawn) [Example 356, N-(5-(2,6-Difluoro-4-methoxyphenyl)-2-(4-methoxy-6-((tetrahydrofuran-3-yl)oxy)pyridin-2-yl)-1-methyl-3-oxo-2,3-dihydro-1H-pyrazol-4-yl)-4-(difluoromethoxy)benzamide] |
| 5 nM | > 10000 nM | COc1cc(F)c(-c2c(NC(=O)c3ccc(OC(F)F)cc3)c(=O)n(-c3nc(C)ccc3C#N)n2C)c(F)c1 [Example 357, N-(2-(3-Cyano-6-methylpyridin-2-yl)-5-(2,6-difluoro-4-methoxyphenyl)-1-methyl-3-oxo-2,3-dihydro-1H-pyrazol-4-yl)-4-(difluoromethoxy)benzamide] |
| 9 nM | > 10000 nM | COc1cc(F)c(-c2c(NC(=O)c3ccc(OC(F)F)cc3)c(=O)n(-c3nc(C(F)(F)F)ccc3OCC3(C)COC3)n2C)c(F)c1 [Example 358, N-(5-(2,6-Difluoro-4-methoxyphenyl)-1-methyl-2-(3-((3-methyloxetan-3-yl)methoxy)-6-(trifluoromethyl)pyridin-2-yl)-3-oxo-2,3-dihydro-1H-pyrazol-4-yl)-4-(difluoromethoxy)benzamide] |
| 5 nM | > 10000 nM | COc1cc(F)c(-c2c(NC(=O)c3ccc(OC(F)F)cc3)c(=O)n(-c3cc(C)cc(OC4CCOC4)n3)n2C)c(F)c1 (stereo not drawn) [Example 359, N-(5-(2,6-Difluoro-4-methoxyphenyl)-1-methyl-2-(4-methyl-6-((tetrahydrofuran-3-yl)oxy)pyridin-2-yl)-3-oxo-2,3-dihydro-1H-pyrazol-4-yl)-4-(difluoromethoxy)benzamide] |
